Results: US4556668A, “Ethylenediamine derivatives of aryloxypropanolamine aryl esters having various medicinal properties” (American Hospital Supply Corporation, priority 1983, dated 1985)

Key:
[1] = target: T1, guinea pig tracheal strips (Cavia porcellus, UniProt Q8K4Z4); experiment: Beta blocking activity in vitro, guinea pig tracheal strips (isoproterenol-induced relaxation); conditions: carbachol tension, vs isoproterenol, 60-minute incubation, read-out: pA2 value in the trachea (converted)
T1 construct: from tissue; host or cells: guinea pig tracheal spiral strips
Protocol: (§1) Compounds of the present invention are tested for β-blocking activity in vitro using guinea pig right atria and guinea pig tracheal strips mounted in a tissue bath containing oxygenated (95% O2 -5% CO2) Krebs physiological salt solution at 37° C. Each tissue is suspended between a fixed glass rod and a Statham Universal Transducer connected to a Beckman recorder. Atria were allowed to beat spontaneously under a loading tension of approximately 0.5 gm. Intrinsic depressant or stimulant activity is determined for each compound by progressively increasing concentrations in the tissue baths at 60-minute intervals. Tissues are not washed between increments. The maximum concentration showing little or no cardiodepressant activity is chosen for blockade experiments. Changes in rate in response to isoproterenol, a standard β-receptor agonist, is measured in the absence and presence of test compounds. Spiral strips of guinea pig trachea are suspended under 5 gm resting tension and incubated with phentolamine, tropolone and cocaine. Active tension is generated by addition of carbachol (3.0×10^-7 M) and decreases in tension in response to isoproterenol are quantitated. Cumulative concentration-response curves are produced with isoproterenol both before and after 60-minute incubation of test compounds with atria and trachea. […]

[2] = tested on: β-blockade of isoproterenol heart rate response; experiment: Duration of beta-blocking action in vivo, anesthetized dogs; design: species or system dog; conditions: pentobarbital-anesthetized dogs, after 3-hour infusion, isoproterenol 0.5 μg/kg bolus
Protocol: The duration of β-blockade is determined In vivo using pentobarbital-anesthetized dogs instrumented for measurement of heart rate using a Beckman cardiotachometer triggered electronically by a phasic aortic blood pressure signal. Both vagus nerves are severed in the cervical region and the animals are mechanically ventilated. The experimental design used employs a 3-hour infusion of test compound. Bolus doses of isoproterenol (0.5 μg/kg) are used to assess the degree of β-blockade and recovery from β-blockade after […] of the infusion. The doses are spaced at 10-minute intervals and are given before, during and following the infusion of test compounds. The infusion rate is adjusted so that at the end of the 3-hour infusion period the degree of isoproterenol inhibition averaged about 50% of control. Following termination of blocker infusion, percent recovery from β-blockade is computed and the time associated with 80% recovery estimated.

guinea pig right atria [3] = experiment: Beta blocking activity in vitro, guinea pig right atria (isoproterenol-induced rate change); conditions: ratio greater than one indicates cardioselectivity
Protocol: as §1

guinea pig right atria [4] = target: T2, guinea pig right atria (Cavia porcellus, UniProt H0W3H1); experiment: as above; conditions: guinea pig right atria, vs isoproterenol, 60-minute incubation; read-out: pA2 value in the atria (converted)
T2 construct: from tissue; host or cells: guinea pig right atria (isolated, spontaneously beating)
Protocol: as §1

T2 sequence (H0W3H1 1-470): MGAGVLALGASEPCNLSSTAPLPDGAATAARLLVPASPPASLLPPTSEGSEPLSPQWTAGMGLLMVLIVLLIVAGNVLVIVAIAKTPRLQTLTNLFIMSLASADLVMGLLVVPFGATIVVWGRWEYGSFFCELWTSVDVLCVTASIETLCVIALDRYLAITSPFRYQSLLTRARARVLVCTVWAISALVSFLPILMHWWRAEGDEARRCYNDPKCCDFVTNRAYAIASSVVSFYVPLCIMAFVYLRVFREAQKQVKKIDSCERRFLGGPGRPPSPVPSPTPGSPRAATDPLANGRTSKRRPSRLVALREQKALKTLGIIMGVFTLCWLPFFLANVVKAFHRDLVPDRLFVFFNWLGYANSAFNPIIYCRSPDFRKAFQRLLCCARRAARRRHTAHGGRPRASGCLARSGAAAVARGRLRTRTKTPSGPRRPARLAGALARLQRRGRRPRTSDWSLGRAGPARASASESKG
T1 sequence (Q8K4Z4 whole entry): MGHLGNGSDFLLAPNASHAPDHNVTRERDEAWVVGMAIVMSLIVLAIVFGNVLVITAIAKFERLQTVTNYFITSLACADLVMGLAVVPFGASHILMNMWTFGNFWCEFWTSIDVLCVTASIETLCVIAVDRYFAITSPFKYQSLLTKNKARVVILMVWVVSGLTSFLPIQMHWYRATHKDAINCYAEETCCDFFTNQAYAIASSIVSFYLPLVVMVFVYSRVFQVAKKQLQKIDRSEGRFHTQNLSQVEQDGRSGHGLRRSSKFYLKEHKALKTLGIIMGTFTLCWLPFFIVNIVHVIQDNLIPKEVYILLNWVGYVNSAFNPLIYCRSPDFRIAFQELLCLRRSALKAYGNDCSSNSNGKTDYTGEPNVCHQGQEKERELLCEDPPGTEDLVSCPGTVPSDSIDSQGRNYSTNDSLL

Compound: COC(=O)c1ccccc1OCC(O)CNCCNc1ccc([N+](=O)[O-])cn1 (stereo not shown) [Example I, Methyl 2[2-Hydroxy-3-[2-[2-(5-nitropyridinyl)amino]ethyl]aminopropoxy benzoate]
- Kb [1]: 79.4 nM
- in vivo duration of action (time to 80% recovery from β-blockade) [2]: 15 ± 6 min
- cardioselectivity (ratio KB trachea/KB atria) (guinea pig right atria [3]): 2.5
- Kb (guinea pig right atria [4]): 31.6 nM
